Reference: US9782424B2, “Synergistic combination comprising avermectins and a NSAID for tumor inhibition” (Ectin Research AB, priority 2011, dated 2017)

Columns and labels:
Format in all cases: cell-based, human
[1] = test system: colorectal cells (Colo205); assay: Morphology of cultured tumor cells, Colo205; conditions: ivermectin 10 μM alone, albendazole 20 and 40 μM alone (FIG. 11)
Experimental: (§1) Commercially available human tumor cell lines were purchased from ATCC (ATCC/LGC-standards, Borás, Sweden). […] Briefly, ampoules of frozen cells were thawed by submerging into a 37° C. water bath for 45 s. […] With supernatant discarded, cell pellets were further resuspended with 5 ml complete medium into 25 cm^2 cell culture flasks (Cell+, Sarstedt, Nümbrecht, Germany). Tumor cells were cultured until sub-confluence and further sub-cultured with Trypsin (0.5%), EDTA (0.2%) solution (T4174, TE-10x, Sigma) in sterile sodium chloride. Culture media was changed two-three times a week. Culture flasks (Cell+, Sarstedt, Nümbrecht, Germany) and culture plates (Falcon/BD, Franklin Lakes, N.J., USA) were used for experimental set-ups. Cells were regularly monitored using an inverted microscope connected to a digital photo equipment (Axiovert 25 and Axiovision, Zeiss, Carl Zeiss AG, Germany) (FIG. 1). Described culture techniques and equipment have been used extensively in the laboratory
(§2) The effect of Ivermectin, selamectin, abamectin alone, or in combination with ketoconazole, albendazole, ibuprofen, diclofenac and celecoxib on the morphology of cultured human tumor cells was studied. The effect of ivermectin in the presence of increasing concentration of ivermectin was also investigated. Cells were grown into sub-confluence and then sub-cultured into 12 and 24 well plates (Sarstedt, Falcon/BD) for morphology studies, or in 96 well plates (Sarstedt, Falcon/BD) for proliferation studies.

[2] = test system: urinary bladder cell line (UM-UC-3); assay: XTT-assay proliferation rate, urinary bladder cell line; conditions: UM-UC-3 (Table 3), no IVM
Experimental: as §1
(§3) The proliferation rates of the different human tumor cell lines were studied using a method based on the conversion of a sodium salt (XTT-assay, Sigma) into a stable orange color that could be analyzed in a spectrophotometer. […] The color change was measured using a 96-well plate reader with software to calculate the absorbance at 450 nm (V-max/Softmax Pro, Molecular Devices, USA).
(§4) Increasing concentrations of substance ivermectin was added with an 8-channel pipette (Titertek, Kem-En-Tec, Taastrup, Denmark) together with sterile pipette tips (Molecular Bioproducts, San Diego, Calif., USA). Cell cultures including active substances were incubated for 24 hours (and 96 hours). Untreated wells including culture medium only served as untreated controls. The XTT-assay substrate was added and after gentle agitation using a micro plate shaker, absorbencies at 450 and 650 nm were measured. Levels from medium were subtracted and compared with control wells, using culture medium only.

[3] = test system: colorectal cell line (Colo205); assay: XTT-assay proliferation rate, colorectal cell line Colo205; conditions: Colo205 (Table 4), no IVM
From the text: Commercially available human tumor cell lines were purchased from […], Borás, Sweden). Cell lines from urinary bladder (UM-UC-3, #CRL-1749), colorectal carcinoma (Colo205, #CCL-222 and HT29, #HTB-38), prostate carcinoma (LNCaP, #CRL-1740) and breast carcinoma (ZR-75-1, #CRL-1500) were purchased and stored in liquid nitrogen. […] Tumor cell lines were handled aseptically using a laminar airflow (LAF) bench (Holten 2448, Ninolab, Sweden) and stored in a liquid nitrogen tank and were initiated in culture as previously described (Falk P. Experimental models of the peritoneal environment: Effects of TGF-beta and Hyaluronan. Göteborg: University of Gothenburg; 2008). Briefly, ampoules of frozen cells were thawed by submerging into a 37° C. water bath for 45 s. […] Culture media was changed two-three times a week. Culture flasks (Cell+, Sarstedt, Nümbrecht, Germany) and culture plates (Falcon/BD, Franklin Lakes, N.J., USA) were used for experimental set-ups. […] Described culture techniques and equipment have been used extensively in the laboratory The proliferation rates of the different human tumor cell lines were studied using a method based on the conversion of a sodium salt (XTT-assay, Sigma) into a stable orange color that could be analyzed in a spectrophotometer. The color change is proportional to the mitochondrial dehydrogenase activity resulting in an effective technique for measuring cell toxicity (Roehm N W, Rodgers […], Glasebrook A L. An improved colorimetric assay for cell proliferation and viability utilizing the tetrazolium salt XTT. […] The color change was measured using a 96-well plate reader with software to calculate the absorbance at 450 nm (V-max/Softmax Pro, Molecular Devices, USA). […] RPMI 1640 and EMEM without phenol red was used during the experiments to reduce the red color background signal in the XTT-assay. […] Untreated wells including culture medium only served as untreated controls. The XTT-assay substrate was added and after gentle agitation using a micro plate shaker, absorbencies at 450 and 650 nm were measured. Levels from medium were subtracted and compared with control wells, using culture medium only.

[4] = test system: prostatic cell line (LNCaP); assay: XTT-assay proliferation rate, prostatic cell line; conditions: LNCaP (Table 5); single agent 10 μmol/L, no IVM
Experimental: as §1, §3, §4

prostate cells (LNCaP) = assay: Morphology of cultured tumor cells, LNCaP
Experimental: as §1, §2

[5] = test system: prostatic cell line (LNCaP); assay: XTT-assay proliferation rate, prostatic cell line; conditions: for Proliferation rate compared to untreated control: LNCaP (Table 5), no IVM
[6] = test system: breast cell line (ZR-75-1); assay: XTT-assay proliferation rate, breast cell line; conditions: ZR-75-1 (Table 6), no IVM
Experimental: as §1, §3, §4

Row | SMILES | Decreased growth of cells, substances tested alone [1] | Proliferation rate compared to untreated medium control ([2]; single agent 10 μmol/L) [%] | Proliferation rate compared to untreated medium control ([2]; single agent 20 μmol/L) [%] | Proliferation rate compared to untreated medium control ([2]; single agent 40 μmol/L) [%] | Proliferation rate compared to medium control ([3]; single agent 10 μmol/L) [%] | Proliferation rate compared to medium control ([3]; single agent 20 μmol/L) [%] | Proliferation rate compared to medium control ([3]; single agent 40 μmol/L) [%] | Proliferation rate compared to untreated control [4] [%] | Effect on morphology (prostate cells (LNCaP); ketoconazole 10 μM) | Effect on morphology (prostate cells (LNCaP); ketoconazole 20 and 40 μM) | Proliferation rate compared to untreated control ([5]; single agent 10 μmol/L, listed as Ket) [%] | Proliferation rate compared to untreated control ([5]; single agent 20 μmol/L) [%] | Proliferation rate compared to untreated control ([5]; single agent 40 μmol/L) [%] | Effect on proliferation rate ([5]; LNCaP, ketoconazole alone at 20 and 40 μM) | Proliferation rate compared to untreated control ([6]; single agent 10 μmol/L) [%] | Proliferation rate compared to untreated control ([6]; single agent 20 μmol/L) [%] | Proliferation rate compared to untreated control ([6]; single agent 40 μmol/L) [%]
1 | CCCSc1ccc2nc(NC(=O)OC)[nH]c2c1 [albendazole, Methyl[6-(propylthio)-1H-benzoimidazol-2-yl]carbamate] | not seen |  |  |  |  |  |  |  |  |  |  |  |  |  |  |  | 
2 | CC(=O)N1CCN(c2ccc(OC[C@H]3CO[C@](Cn4ccnc4)(c4ccc(Cl)cc4Cl)O3)cc2)CC1 [ketoconazole, 1-[4-(4-{[(2R,4S)-2-(2,4-Dichlorophenyl)-2-(1H-imidazol-1-ylmethyl)-1,3-dioxolan-4-yl]methoxy}phenyl)piperazin-1-yl]ethan-1-one] |  | 95 ± 6 | 99 ± 6 | 103 ± 2 | 94.8 ± 6.3 | 93.4 ± 8.1 | 72.1 ± 15.5 | 104.6±3.0 | not microscopically affected | did affect morphology | 104.6 ± 3.0 | 76.3 ± 2.3 | 68.0 ± 1.8 | decreased the proliferation rate |  |  | 
3 | Cc1ccc(-c2cc(C(F)(F)F)nn2-c2ccc(S(N)(=O)=O)cc2)cc1 [celecoxib, 4-[5-(4-methylphenyl)-3-(trifluoromethyl)pyrazol-1-yl]benzenesulfonamide] |  | 103 ± 9 | 100 ± 6 | 106 ± 1 | 98.7 ± 15.8 | 94.8 ± 2.5 | 94.5 ± 6.6 |  |  |  |  |  |  |  | 116.5 ± 4.4 | 110.6 ± 13.3 | 95.2 ± 4.9
4 | CC(C)Cc1ccc(C(C)C(=O)O)cc1 (racemic) [ibuprofen, (RS)-2-(4-(2-methylpropyl)phenyl)propanoic acid] |  | 103 ± 2 | 106 ± 2 | 99 ± 3 | 90.1 ± 8.8 | 92.2 ± 8.2 | 90.8 ± 6.3 |  |  |  |  |  |  |  | 115.2 ± 3.8 | 116.2 ± 1.9 | 108.7 ± 6.7
